Measured values from article PMC5823406, “Vehicle development, pharmacokinetics and toxicity of the anti-invasive agent 4-fluoro-3’,4’,5’-trimethoxychalcone in rodents” (PLoS ONE, 2018).
Values joined by “and” are separate entries in the source; they are usually repeats but may differ in a detail not shown here. Identical values can stand only once. “Also recorded” adds a separate entry of the source. Like-named read-outs stand apart in the source and are kept apart here.

Key:
MCF-7/6 [1] = tested on: MCF-7/6; design: method as in PMID 26204510; settings: cited from earlier work
[2] = Solubility in vehicles, visual determination; format: physicochemical
Method: C16 has low aqueous solubility, which limits the choice of preclinical formulations for in vivo studies. In this work, thirteen vehicles were evaluated for their applicability in single-dose studies (Table 1). For commonly used systems (entries a-e) visual determination of solubility was conducted, while for the more complex systems solubility was assessed by laser nephelometry.

Whole blood stability = format: in vitro ADME, rat; settings: for half-life at 1 μM: male, Sprague-Dawley, rat
Method: C16 (1 μM) or vehicle (DMSO) were incubated with fresh rat blood (Sprague Dawley, male) at 37°C at 5 time points in duplicate over a 120-min period. The final DMSO concentration in the incubation was 0.25%. Reactions were terminated following 0, 15, 30, 60 and 120 min by acetonitrile containing internal standard. The sampling plate was centrifuged (3000 rpm, 45 min, 4 °C) and the supernatants from each time point analyzed for parent compound by HPLC-MS/MS. The percentage of parent compound remaining at each time point relative to the 0-min sample was then calculated from HPLC-MS/MS peak area ratios (compound peak area/internal standard peak area).
(§1) C. Stability and metabolism
(§2) For details on ADME experiments not included underneath , please consult ref. [1].
(§3) C.A. Whole blood stability
(§4) Column: Kinetex XB-C18 column, 2.6 µm (150 x2.1 mm)
(§5) Mobile phase A: H2O + 0.1% v/v Formic Acid
(§6) Mobile phase B: MeCN + 0.1% v/v Formic Acid
(§7) Autosampler syringe volume: 100 µL
(§8) Weak wash: MeOH:H2O 1:9 v/v
(§9) Strong wash: MeOH:H2O 95:5 v/v
(§10) Table K. Gradient program.
(§11) Mass spectrometric conditions
(§12) Model: AB Sciex API5500 QTrap
(§13) Mode: Multiple ion monitoring (MIM)
(§14) Table L. MIM (parent to parent transitions).
(§15) The areas and percentages for the parent and metabolites have been calculated using MIM data where parent to parent transitions have been used, and assume that each metabolite has the same point of ionisation and the sensitivity of the metabolite has not been affected by the biotransformation.

[3] = Metabolite profiling in whole blood; format: in vitro ADME; settings: rat whole blood
Method: as §1, §2, §3, §4, §5, §6, §7, §8, §9, §10, §11, §12, §13, §14, §15

Blood partitioning = format: in vitro ADME; settings: rat, Sprague-Dawley, authors call the ratio not accurate
[4] = Stability test of C16 in 10% Solutol HS-15 / 90% PEG 600; format: physicochemical
Method: Solutions of 30 mg/mL and 10 mg/mL of C16 were prepared and stored at room temperature and 4°C for 24 h. The stability of C16 was evaluated at 0, 1, 2, 4, 8 and 24 h after formulation by high-performance liquid chromatography-mass spectrometry/mass spectrometry (HPLC-MS/MS) (electrospray ionization, ESI+) analysis using oxybutynin as an internal standard (IS). Analyte samples were diluted 500x with acetonitrile (ACN)/H2O (20:80). This solution was further diluted 100x with an oxybutynin solution (1 ng/μL in ACN/H2O 20:80), giving a final concentration of 0.6 ng/μL and 0.2 ng/μL, respectively, for HPLC-MS/MS analysis (multiple reaction monitoring scan mode, MRM, see Section A of S1 File for more details). All analyses were performed in triplicates.
A.A. Vehicles for single-dose studies a. Stability test of C16 in 10% Solutol HS -15 / 90% PEG 600
Quantification was performed by calculating the ratio of the peak area (counts) of C16 and the IS. Results are expressed as relative differences to the peak ratio at 0 h (%RE, Table A).
Table A. Stability in 10% Solutol HS -15 / 90% PEG 600: peak ratios.
10mg/mL at room temperature
30mg/mL at room temperature
CV: Coefficient of variation; RE: Difference in peak area relative to indicated time point. […]

MCF-7/6 [5] = assay: Chick heart invasion assay (3D confrontation culture); format: cell-based; settings: Homo sapiens, MCF7/6; read-out: projected C16 EC50 value
Description: Our laboratories have been characterizing and validating 4-fluoro-3’,4’,5’-trimethoxychalcone or C16 as a novel invasion inhibitor for the study and potential treatment of metastatic cancer (Fig 1). C16 has nanomolar anti-invasive potency in the chick heart and Matrigel in vitro invasion models against several human cancer cell lines (MCF-7/6 breast cancer, BLM melanoma and SK-OV-3 ovarian carcinoma). […] Given its discovery in a phenotypic model, the biological target of C16 is unknown. We have differentiated the molecular mechanism of action of C16 from that of other antimetastatic agents, and are currently characterizing its biochemical interactions in detail.
Fig 1 Structure and biological activity of C16.

COc1cc(C(=O)/C=C/c2ccc(F)cc2)cc(OC)c1OC [C16, 4-fluoro-3’,4’,5’-trimethoxychalcone]
Activity level in 3D confrontation culture (chick heart invasion assay, MCF-7/6) (MCF-7/6 [1]): 10 nM
Solubility of C16 in vehicle: Result ([2]; 10% (DMSO / Cremophor EL 1:1) / 90% Milli-Q water, 2 mg/mL): Insoluble ^a
Solubility of C16 in vehicle: Result ([2]; 10% DMSO in normal saline, 1 mg/mL): Insoluble ^a
Solubility of C16 in vehicle: Result ([2]; 20% DMSO / 10% (DMSO / Cremophor EL 1:1) / 70% Milli-Q water, 2 mg/mL): Soluble ^a
Solubility of C16 in vehicle: Result ([2]; 50% DMSO in normal saline, 1 mg/mL): Insoluble ^a
Solubility of C16 in vehicle: Result ([2]; DMSO, 10 mg/mL): highly soluble; also recorded: Soluble ^a
remaining at 15 min, 1 µM (Whole blood stability; fresh whole blood, male Sprague-Dawley rat blood, 15 min, read-out: Compound remaining (% of 0 min)): 16.5%
remaining at 30 min, 1 µM (Whole blood stability; fresh whole blood, male Sprague-Dawley rat blood, 30 min, read-out: Compound remaining (% of 0 min)): 13.8%
remaining at 60 min, 1 µM (Whole blood stability; fresh whole blood, male Sprague-Dawley rat blood, 60 min, read-out: Compound remaining (% of 0 min)): 10.6%
remaining at 120 min, 1 µM (Whole blood stability; fresh whole blood, male Sprague-Dawley rat blood, 120 min, read-out: Compound remaining (% of 0 min)): 7%
Intrinsic clearance (Whole blood stability; male Sprague-Dawley rat blood, Both Isomers integrated): 120 µL/min/mL blood
half-life at 1 μM (Whole blood stability; fresh whole blood, blood (rat, Sprague-Dawley), 1 μM, read-out: Half-life): 6 min
half-life at 1 μM (Whole blood stability; fresh whole blood, male Sprague-Dawley rat blood, Both Isomers integrated, read-out: t1/2): 5.76 min
half-life at 1 μM (Whole blood stability; fresh whole blood, male Sprague-Dawley rat blood, E-isomer only, read-out: t1/2): 8.06 min
Area in sample (%) ([3]; 0 min control): 62.4%
Area in sample (%) ([3]; 15 min sample): 52.2%
blood plasma ratio at 1 μM (Blood partitioning): 9.2
%RE to 0 h (peak ratio C16/IS) ([4]; 10mg/mL at 4 °C, 1 h): 1.2%
%RE to 0 h (peak ratio C16/IS) ([4]; 10mg/mL at 4 °C, 2 h): -2.9%
%RE to 0 h (peak ratio C16/IS) ([4]; 10mg/mL at 4 °C, 4 h): 1.4%
%RE to 0 h (peak ratio C16/IS) ([4]; 10mg/mL at 4 °C, 8 h): -0.6%
%RE to 0 h (peak ratio C16/IS) ([4]; 10mg/mL at 4 °C, 24 h): -1.4%
%RE to 0 h (peak ratio C16/IS) ([4]; 10mg/mL at room temperature, 1 h): 1.8%
%RE to 0 h (peak ratio C16/IS) ([4]; 10mg/mL at room temperature, 2 h): 1.8%
%RE to 0 h (peak ratio C16/IS) ([4]; 10mg/mL at room temperature, 4 h): -1.0%
%RE to 0 h (peak ratio C16/IS) ([4]; 10mg/mL at room temperature, 8 h): 1.4%
%RE to 0 h (peak ratio C16/IS) ([4]; 10mg/mL at room temperature, 24 h): 2.9%
%RE to 0 h (peak ratio C16/IS) ([4]; 30mg/mL at 4°C, 1 h): 4.8%
%RE to 0 h (peak ratio C16/IS) ([4]; 30mg/mL at 4°C, 2 h): -6.1%
%RE to 0 h (peak ratio C16/IS) ([4]; 30mg/mL at 4°C, 4 h): 3.5%
%RE to 0 h (peak ratio C16/IS) ([4]; 30mg/mL at 4°C, 8 h): 5.0%
%RE to 0 h (peak ratio C16/IS) ([4]; 30mg/mL at 4°C, 24 h): 1.6%
%RE to 0 h (peak ratio C16/IS) ([4]; 30mg/mL at room temperature, 1 h): -0.6%
%RE to 0 h (peak ratio C16/IS) ([4]; 30mg/mL at room temperature, 2 h): 0.2%
%RE to 0 h (peak ratio C16/IS) ([4]; 30mg/mL at room temperature, 4 h): -3.1%
%RE to 0 h (peak ratio C16/IS) ([4]; 30mg/mL at room temperature, 8 h): -5.4%
%RE to 0 h (peak ratio C16/IS) ([4]; 30mg/mL at room temperature, 24 h): 0.3%
Stability of solutions in 10% Solutol HS-15 / 90% PEG 600 ([4]; 10 and 30 mg/mL, room temperature (20–25 °C) and 4°C over 24 h): stable
EC50 (MCF-7/6 [5]): 10 nM and 0.00632 µg/mL
